The results in this text go back to patent publication US8114875B2, “Substituted N-heterocyclic compounds and their use as dopamine D3 receptor ligands” (Abbott GmbH & Co. KG, priority 2004, dated 2012).

For experiment [1], the target named is T1, human dopamine D3 receptors (Homo sapiens, UniProt P35462).
T1 construct: expressed in transfected cells; host or cells: HEK-293
The experiment is described as follows: Dopamine D3 receptor binding, displacement of [125I]-iodosulpride. The conditions noted are these: membranes from HEK-293 cells with stably expressed human D3 receptors; 0.1 nM [125I]-iodosulpride; 25° C., 60 minutes. The method, then: (§1) The substance to be tested was dissolved either in methanol/Chremophor® (BASFAG) or in dimethyl sulfoxide and then diluted with water to the desired concentration.
The mixture (0.250 ml) was composed of membranes from ˜106 HEK-293 cells with stably expressed human dopamine D3 receptors, 0.1 nM [^125I]-iodosulpride and incubation buffer (total binding) or with additional test substance (inhibition plot) or 1 μM spiperone (nonspecific binding). Triplicate mixtures were carried out.
The incubation buffer contained 50 mM Tris, 120 mM NaCl, 5 mM KCl, 2 mM CaCl2, 2 mM MgCl2 and 0.1% bovine serum albumin, 10 μM quinolone, 0.1% ascorbic acid (prepared fresh each day). The buffer was adjusted to pH 7.4 with HCl.
(§2) Measurement and Evaluation:
(§3) After incubation at 25° C. for 60 minutes, the mixtures were filtered under vacuum through Whatman GF/B glass fiber filters using a cell harvester. The filters were transferred by a filter transfer system into scintillation vials. After addition of 4 ml of Ultima Gold® (Packard), the samples were shaken for one hour and then the radioactivity was counted in a beta counter (Packard, Tricarb 2000 or 2200CA). The cp values were converted into dpm by means of a standard quench series with the aid of the instrument's own program.
(§4) Evaluation of the inhibition plots took place by iterative nonlinear regression analysis using the Statistical Analysis System (SAS) similar to the “LIGAND” program described by Munson and Rodbard.
In general terms: In a radioligand displacement assay an active substance lowers the binding of a labelled ligand.

The target in experiment [2] is T2, human dopamine D2L receptors (long isoform) (Homo sapiens, UniProt P14416).
T2 construct: expressed in transfected cells; host or cells: HEK-293
T2 sequence (P14416 whole entry, canonical isoform): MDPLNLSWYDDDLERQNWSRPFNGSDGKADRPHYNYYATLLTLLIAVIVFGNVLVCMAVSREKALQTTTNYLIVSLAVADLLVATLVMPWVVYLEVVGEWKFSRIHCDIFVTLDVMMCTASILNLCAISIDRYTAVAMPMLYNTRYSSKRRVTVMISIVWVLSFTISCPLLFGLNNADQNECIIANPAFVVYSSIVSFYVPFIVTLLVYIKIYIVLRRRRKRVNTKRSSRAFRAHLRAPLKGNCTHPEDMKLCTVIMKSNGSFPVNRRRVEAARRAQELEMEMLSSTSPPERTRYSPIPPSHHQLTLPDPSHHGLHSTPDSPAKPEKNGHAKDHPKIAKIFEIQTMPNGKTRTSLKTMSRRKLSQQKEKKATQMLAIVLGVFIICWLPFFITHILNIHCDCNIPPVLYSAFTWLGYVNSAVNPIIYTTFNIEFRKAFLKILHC
The experiment is described as follows: Dopamine D2L receptor binding, displacement of [125I]-iodospiperone. The following applies: ratio of Ki values from D3 and D2L binding assays, HEK-293 membranes. The method, then:
as §1
The mixture (1 ml) was composed of membranes from ˜10^6 HEK-293 cells with stably expressed human dopamine D2L receptors (long isoform) and 0.01 nM [^1251]-iodospiperone and incubation buffer (total binding) or with additional test substance (inhibition plot) or 1 μM haloperidol (nonspecific binding). Triplicate mixtures were carried out.
The incubation buffer contained 50 mM Tris, 120 mM NaCl, 5 mM KCl, 2 mM CaCl2, 2 mM MgCl2 and 0.1% bovine serum albumin. The buffer was adjusted to pH 7.4 with HCl.
as §2, §3, §4

T1 sequence (P35462 whole entry): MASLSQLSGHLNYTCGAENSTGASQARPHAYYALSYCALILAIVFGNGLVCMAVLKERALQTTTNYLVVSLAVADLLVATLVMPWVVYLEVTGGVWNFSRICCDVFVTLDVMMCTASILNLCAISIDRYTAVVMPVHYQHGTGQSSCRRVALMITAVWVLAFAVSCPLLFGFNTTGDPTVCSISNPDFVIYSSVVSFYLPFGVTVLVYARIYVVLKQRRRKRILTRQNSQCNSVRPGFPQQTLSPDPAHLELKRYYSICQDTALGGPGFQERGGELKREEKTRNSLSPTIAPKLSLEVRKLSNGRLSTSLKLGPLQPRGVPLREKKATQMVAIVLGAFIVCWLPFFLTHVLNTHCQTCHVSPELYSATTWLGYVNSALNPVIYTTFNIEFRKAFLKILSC

Turning to `Cc1cn(CCCCN2CCN(Cc3ccc(F)cc3Cl)CC2)c(=O)[nH]c1=O` [Example 11, 1-{4-[4-(2-Chloro-4-fluorobenzyl)piperazin-1-yl]butyl}-5-methyl-1H-pyrimidine-2,4-dione], the affinity in experiment [1], expressed as Ki, was 22.3 nM. The “Selectivity D3 vs. D2L (footnote: Ki(D2L)/Ki(D3))” value (from here on “Selectivity D3 vs. D2L”) in experiment [2] worked out at 48.
Take `O=c1[nH]c(=O)n(CCCCN2CCN(Cc3ccc(Cl)cc3Cl)CC2)cc1F` [Example 5, 1-{4-[4-(2,4-Dichlorobenzyl)piperazin-1-yl]butyl}-5-fluoro-1H-pyrimidine-2,4-dione]: the Ki (commonly the dissociation constant of the complex between target and ligand, obtained from inhibition or displacement) in experiment [1] was 10.6 nM. Besides, the “Selectivity D3 vs. D2L” value in experiment [2] is on record as 99.
`O=c1nc(-c2ccccc2)ccn1CCCCN1CCN(Cc2ccc(Cl)cc2Cl)CC1` [Example 3, 1-{4-[4-(2,4-Dichlorobenzyl)piperazin-1-yl]butyl}-4-phenyl-1H-pyrimidin-2-one] yielded an inhibition constant Ki in experiment [1] of 3.16 nM. For the same compound, the “Selectivity D3 vs. D2L” value in experiment [2] was found to be 204.
For the compound `Cc1ccn(CCCCN2CCN(Cc3ccc(Cl)cc3Cl)CC2)c(=O)n1` [Example 4, 1-{4-[4-(2,4-Dichlorobenzyl)piperazin-1-yl]butyl}-4-methyl-1H-pyrimidin-2-one], affinity in experiment [1] was put at a Ki of 17 nM. In experiment [2], the “Selectivity D3 vs. D2L” value was determined as 31.
In the case of `Cc1cn(CCCCN2CCN(Cc3ccc(Cl)c(Cl)c3)CC2)c(=O)[nH]c1=O` [Example 10, 1-{4-[4-(3,4-Dichlorobenzyl)piperazin-1-yl]butyl}-5-methyl-1H-pyrimidine-2,4-dione], the Ki in experiment [1] came out at 18.1 nM. The “Selectivity D3 vs. D2L” value in experiment [2] is on record as 51.
On to `O=c1ccn(CCCCN2CCN(Cc3ccc(Cl)cc3Cl)CC2)c(=O)[nH]1` [Example 2, 1-{4-[4-(2,4-Dichlorobenzyl)piperazin-1-yl]butyl}-1H-pyrimidine-2,4-dione], for which the affinity in experiment [1], expressed as Ki, was 4.6 nM. Also, the “Selectivity D3 vs. D2L” value in experiment [2] was found to be 94.
As for `Cc1cn(CCCCN2CCN(Cc3ccc(Cl)cc3Cl)CC2)c(=O)[nH]c1=O` [Example 1, 1-{4-[4-(2,4-Dichlorobenzyl)piperazin-1-yl]butyl}-5-methyl-1H-pyrimidine-2,4-dione], in experiment [1], affinity was put at a Ki of 8.9 nM. Moreover, in experiment [2], the “Selectivity D3 vs. D2L” value was 98.
